Measured values as given in patent US8106092B2, “Treatment of solid cancers” (priority 2004, dated 2012).

Experiments:
Lewis lung-OVA tumors = assay: Lewis lung-OVA primary cure and secondary challenge repeated in Foxnl^nu mice; format: in vivo; conditions: PEP005-mediated cure of primary tumors
B16-OVA lung metastases = assay: B16-OVA melanoma lung metastasis model; format: in vivo, C57BL/6 mice
Procedure: FIGS. 4A to D are graphical representations showing protection against secondary tumors following cure of primary tumors with PEP005. (A) C57BL/6 mice received 5×10^5 Lewis lung-OVA s.c. on the back on day less 7 (d−7). When these primary tumors had reached an average 13.6 mm^2±1.8 SE (range 10-25 mm^2) on d0 they were treated once with 16 μg of PEP005 delivered i.t. In eight mice these primary tumors were cured, and these mice received 5×10^5 Lewis lung-OVA s.c. on d4 on the opposite flank from the primary tumors. The emergence of these secondary tumors was monitored over time (PEP005 cured). In a parallel group of animals (n=5) PEP005 treatment regressed the primary tumors, but after 11-13 days the primary tumors re-emerged. These animals also received secondary tumors as above and their emergence was again monitored over time (PEP005 regressed). Two control groups were included. One group (n=6) received no primary tumors, but was treated s.c. with PEP005 and received secondary tumors on the opposite flank (white triangles, PEP005 s.c.). The second control group (n=8) also received no primary tumors, was not treated with PEP005, and received secondary tumors as above (Controls). […] Secondary B16-OVA (10^5) were injected i.v. on d6 and animals were sacrificed on d27 and lung metastases counted. […]

B16 lung metastases = assay: B16 lung metastasis model; format: in vivo, C57BL/6 mice
Procedure: FIG. 5 is a graphical representation showing the treatment of s.c. B16 tumors with PEP005 reduced growth B16 lung metastases. C57BL/6 mice (n=7) were injected with 10^6 B16 cells s.c. and 5×10^4 B16 cell i.v. on d−2. On dO the s.c. tumors had reached an average 21.8 mm^2+SE 2.4 and were cured with 25 μg of i.t. PEP005 formulated with PEG400. On d18 the mice were euthanazed and lung weights determined (PEP005). Control mice received only i.v. B16 and naïve mice received no tumors (n=6 per group).
The activity of PEP005-mediated cure of primary tumors was assessed in a more robust model using B16 tumors rather than B16-OVA tumors and where primary tumors and lung metastases were both established prior to PEP005 treatment. When the primary tumors had reached 21.8+SE 2.4 they were cured with i.t. PEP005 injection. […] After subtracting the weight of tumor free lungs (FIG. 5A, naïve, dotted line), this represented a reduction in lung tumor burden of over 50%.

Structure (SMILES): C/C=C(/C)C(=O)O[C@H]1C(C)=C[C@]23C(=O)[C@@H](C=C(CO)[C@@H](O)[C@]12O)[C@H]1[C@@H](C[C@H]3C)C1(C)C [PEP005, ingenol-3-angelate]
- protection against secondary challenge (Lewis lung-OVA tumors): no protective effect
- growth of lung metastases (B16-OVA lung metastases; partial regression of the primary tumors by PEP005): failed to inhibit significantly
- number of lung metastases (B16-OVA lung metastases; s.c. primary B16-OVA cured by PEP005, B16-OVA i.v. six days after treatment, Wilcoxon p=0.046): reduce significantly
- reduction in lung tumor burden (B16 lung metastases; after subtracting the weight of tumor free lungs, d18): over 50%
- lung weights on d18 compared to controls (B16 lung metastases; s.c. B16 primaries cured with i.t. PEP005, lung metastases established before treatment, p=0.023): lighter
